Assay results from patent US6737383B1, “Herbicidal oxadiazolidines” (priority 1999, dated 2004).

Columns and labels:
crabgrass = test: Test B pre/postemergence crabgrass; format: in vivo, Digitaria sanguinalis
Method in brief: (§1)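 Test chemicals in a non-phytotoxic solvent mixture with surfactant were sprayed preemergence onto planted seeds and postemergence onto plants 2 to 18 cm tall (1- to 4-leaf stage). After twelve to sixteen days in a greenhouse, injury was visually rated against untreated controls from 0 (no effect) to 10 (complete control).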

giant foxtail = test: Test B pre/postemergence giant foxtail; format: in vivo, Setaria faberii
Method in brief: as §1

wheat = test: Test B pre/postemergence wheat; format: in vivo, Triticum aestivum
Method in brief: as §1

duck salad = test: Test B flood test duck salad; format: in vivo, Heteranthera limosa
Method in brief: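 Flood test on plants grown to the 2-leaf stage; treated plants kept in greenhouse twelve to sixteen days, then visually rated against controls on a 0 (no effect) to 10 (complete control) scale.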

[1] = Postemergence, Rate 62 g/ha, scale 0 to 10, 0 is no effect, 10 is complete control
[2] = Postemergence, Rate 250 g/ha, scale 0 to 10, 0 no effect, 10 complete control
[3] = Preemergence, Rate 62 g/ha, scale 0 to 10, 0 is no effect, 10 is complete control
[4] = Preemergence, Rate 125 g/ha, scale 0 to 10 (0 no effect, 10 complete control)
[5] = Preemergence, Rate 250 g/ha, scale of 0 to 10 where 0 is no effect and 10 is complete control
[6] = Preemergence, Rate 500 g/ha, scale 0 (no effect) to 10 (complete control)
[7] = Rate 125 g/ha, Postemergence, scale 0 to 10, 0 no effect, 10 complete control
[8] = Rate 500 g/ha, Postemergence, 0 to 10 scale (0 no effect, 10 complete control)
[9] = Rate 125 g/ha, Postemergence section (flood test species), scale 0 to 10, 0 no effect, 10 complete control
[10] = Rate 500 g/ha, Postemergence section of Table B, 0 to 10 scale (0 no effect, 10 complete control)
[11] = flood test, listed under Postemergence, Rate 250 g/ha, scale 0 to 10, 0 no effect, 10 complete control
[12] = Rate 500 g/ha, Postemergence, scale 0 to 10, 0 no effect, 10 complete control
[13] = Rate 500 g/ha, listed under Postemergence (flood test species), scale 0 to 10, 0 no effect, 10 complete control
[14] = Preemergence, Rate 62 g/ha, scale 0 to 10 (0 no effect, 10 complete control)

| SMILES | Crabgrass plant response rating (crabgrass; [1]) | Crabgrass plant response rating (crabgrass; [2]) | Plant response rating, Crabgrass (crabgrass; [4]) | Plant response rating, Crabgrass (crabgrass; [5]) | Crabgrass plant response rating (crabgrass; [6]) | Crabgrass plant response rating (crabgrass; [7]) | Giant foxtail plant response rating (giant foxtail; [1]) | Giant foxtail plant response rating (giant foxtail; [2]) | Plant response rating, Giant foxtail (giant foxtail; [4]) | Plant response rating, Giant foxtail (giant foxtail; [5]) | Giant foxtail plant response rating (giant foxtail; [6]) | Giant foxtail plant response rating (giant foxtail; [7]) | Wheat plant response rating (wheat; [1]) | Wheat plant response rating (wheat; [2]) | Plant response rating, Wheat (wheat; [4]) | Plant response rating, Wheat (wheat; [5]) | Wheat plant response rating (wheat; [6]) | Wheat plant response rating (wheat; [7]) | Ducksalad plant response rating (duck salad; [1]) | Ducksalad plant response rating (duck salad; [9]) | other results |
| --- | --- | --- | --- | --- | --- | --- | --- | --- | --- | --- | --- | --- | --- | --- | --- | --- | --- | --- | --- | --- | --- |
| CC(C)Oc1cc(-n2c(=O)on(C(=O)N(c3ccc(F)cc3)C(C)C)c2=O)c(Cl)cc1Cl [Compound 43] | 1 | 2 | 0 | 0 | 0 | 2 | 0 | 0 | 0 | 0 | 0 | 0 | 0 | 0 | 0 | 0 | 0 | 0 | 0 | 0 | Plant response rating, Crabgrass (crabgrass; [3]): 0; Crabgrass plant response rating (crabgrass; [8]): 2; Plant response rating, Giant foxtail (giant foxtail; [3]): 0; Giant foxtail plant response rating (giant foxtail; [8]): 0; Plant response rating, Wheat (wheat; [3]): 0; Ducksalad plant response rating (duck salad; [10]): 0; Ducksalad plant response rating (duck salad; [11]): 0 |
| CCc1ccccc1-n1c(=O)on(C(=O)N(c2ccc(F)cc2F)C(C)C)c1=O [Compound 45] | 0 | 2 | 1 | 1 | 9 | 0 | 0 | 9 | 10 | 10 | 10 | 0 | 0 | 0 | 0 | 0 | 0 | 0 | 0 | 0 | Plant response rating, Crabgrass (crabgrass; [3]): 0; Crabgrass plant response rating (crabgrass; [8]): 3; Plant response rating, Giant foxtail (giant foxtail; [3]): 7; Giant foxtail plant response rating (giant foxtail; [8]): 9; Plant response rating, Wheat (wheat; [3]): 0; Ducksalad plant response rating (duck salad; [10]): 0; Ducksalad plant response rating (duck salad; [11]): 0 |
| Cc1ccccc1-n1c(=O)on(C(=O)N(c2ccc(C#N)cc2)C(C)C)c1=O [Compound 51] | 0 | 3 | 0 | 2 | 2 | 0 | 0 | 0 | 2 | 4 | 8 | 0 | 0 | 0 | 0 | 0 | 0 | 0 | 0 | 0 | Plant response rating, Crabgrass (crabgrass; [3]): 0; Crabgrass plant response rating (crabgrass; [12]): 4; Plant response rating, Giant foxtail (giant foxtail; [3]): 0; Giant foxtail plant response rating (giant foxtail; [12]): 3; Plant response rating, Wheat (wheat; [3]): 0; Wheat plant response rating (wheat; [12]): 0; Ducksalad plant response rating (duck salad; [13]): 0; Ducksalad plant response rating (duck salad; [11]): 0 |
| CCN(C(=O)n1oc(=O)n(-c2c(C)cc(C)cc2C)c1=O)C1CCCCC1 [Compound 63] | 0 | 0 | 0 | 1 | 2 | 0 | 0 | 0 | 0 | 2 | 3 | 0 | 0 | 0 | 0 | 0 | 0 | 0 | 0 | 0 | Crabgrass plant response rating (crabgrass; [14]): 0; Crabgrass plant response rating (crabgrass; [12]): 2; Giant foxtail plant response rating (giant foxtail; [14]): 0; Giant foxtail plant response rating (giant foxtail; [12]): 2; Wheat plant response rating (wheat; [14]): 0; Wheat plant response rating (wheat; [12]): 2; Ducksalad plant response rating (duck salad; [13]): 0; Ducksalad plant response rating (duck salad; [11]): 0 |
| CC(C)N(C(=O)n1oc(=O)n(Cc2cccs2)c1=O)c1ccc(F)cc1 [Compound 80] | 2 | 9 | 3 | 10 | 10 | 9 | 0 | 3 | 8 | 8 | 9 | 2 | 0 | 0 | 0 | 0 | 0 | 0 | 0 | 0 | Crabgrass plant response rating (crabgrass; [14]): 3; Crabgrass plant response rating (crabgrass; [12]): 9; Giant foxtail plant response rating (giant foxtail; [14]): 6; Giant foxtail plant response rating (giant foxtail; [12]): 7; Wheat plant response rating (wheat; [14]): 0; Wheat plant response rating (wheat; [12]): 0; Ducksalad plant response rating (duck salad; [13]): 2; Ducksalad plant response rating (duck salad; [11]): 0 |
